# Measured values reported in BindingDB's records for doi:10.1016/j.bmc.2006.03.042 (F. Hoffmann-La Roche, 2006).
# pKi: −log10 of the molar value.
# Assays:
# Assay in all cases: Serine Protease Inhibition Assay
# Coagulation factor X = Coagulation factor X (Homo sapiens, UniProt P00742)
# Description: (§1) The enzyme reactions were initiated by the addition of substrate, and the color developed from the release of p-nitroanilide from each chromogenic substrate was monitored continuously for 5 min at 405 nm on a microtiter plate reader. […] The apparent Ki values were then calculated according to the Cheng-Prusoff equation: Ki = IC50/1 + [S]/Km.
# Prothrombin = Prothrombin (Homo sapiens, UniProt P00734); conditions: pH 7.8; 22 °C
# Description: as §1
# Serine protease 1 = target: T1, Serine protease 1 (Bos taurus, UniProt P00760)
# T1 sequence (P00760 whole entry): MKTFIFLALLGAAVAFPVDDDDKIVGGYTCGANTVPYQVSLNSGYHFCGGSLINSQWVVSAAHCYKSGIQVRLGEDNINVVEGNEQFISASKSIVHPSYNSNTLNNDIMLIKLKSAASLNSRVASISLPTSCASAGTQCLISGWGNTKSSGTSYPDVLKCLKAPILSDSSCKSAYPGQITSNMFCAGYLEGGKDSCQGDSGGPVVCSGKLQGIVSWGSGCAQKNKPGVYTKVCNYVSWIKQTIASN
# Description: as §1
# Coagulation factor VII = target: T2, Coagulation factor VII (Homo sapiens, UniProt P08709); conditions: pH 7.8; 22 °C
# T2 sequence (P08709 whole entry): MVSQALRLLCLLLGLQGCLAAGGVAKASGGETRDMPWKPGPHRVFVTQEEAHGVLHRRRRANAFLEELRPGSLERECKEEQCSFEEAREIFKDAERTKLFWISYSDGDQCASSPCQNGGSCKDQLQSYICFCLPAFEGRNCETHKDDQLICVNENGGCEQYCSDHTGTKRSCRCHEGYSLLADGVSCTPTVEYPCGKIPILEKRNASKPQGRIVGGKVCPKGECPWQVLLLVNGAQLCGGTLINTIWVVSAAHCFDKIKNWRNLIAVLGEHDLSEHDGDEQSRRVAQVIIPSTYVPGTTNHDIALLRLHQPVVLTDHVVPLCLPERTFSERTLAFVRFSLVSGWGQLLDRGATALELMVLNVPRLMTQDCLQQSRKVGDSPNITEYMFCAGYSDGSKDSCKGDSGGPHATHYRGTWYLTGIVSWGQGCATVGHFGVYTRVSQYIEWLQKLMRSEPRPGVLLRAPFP
# Description: as §1
# Chain of Coagulation factor X (P00742 41-179 limits assumed): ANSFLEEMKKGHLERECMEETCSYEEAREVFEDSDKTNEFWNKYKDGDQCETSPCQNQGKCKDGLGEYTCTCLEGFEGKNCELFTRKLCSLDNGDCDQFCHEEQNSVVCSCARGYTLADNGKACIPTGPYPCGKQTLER
# Chain of Coagulation factor X (P00742 235-488 limits assumed): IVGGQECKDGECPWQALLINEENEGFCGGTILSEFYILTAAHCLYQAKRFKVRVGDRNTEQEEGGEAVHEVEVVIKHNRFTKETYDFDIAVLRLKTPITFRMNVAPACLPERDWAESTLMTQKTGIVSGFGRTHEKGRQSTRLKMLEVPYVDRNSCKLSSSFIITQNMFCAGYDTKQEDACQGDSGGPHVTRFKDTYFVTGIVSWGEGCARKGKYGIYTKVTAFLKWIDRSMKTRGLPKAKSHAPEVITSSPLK
Compound,pKi (Coagulation factor X),pKi (Prothrombin),pKi (Serine protease 1),pKi (Coagulation factor VII)
CCOc1cc(OC2CCOC2)cc(C(Nc2ccc(C(=N)N)cc2)C(=O)O)c1 (stereo not given) [(4-Carbamimidoyl-phenylamino)-[3-ethoxy-5-(tetra-hydrofuran-3-yloxy)-phenyl]-acetic acid],5.54,4.97,< 5.17,
"CCOc1cc(OCC)c(F)c(C(Nc2ccc(C(=N)N)cc2)C(=O)O)c1 (racemic) [2-[(4-carbamimidoylphenyl)amino]-2-(3,5-diethoxy-2-fluorophenyl)acetic acid]",5.52,5.06,5.17,6.70
"CCOc1cc(OCC)cc(C(Nc2ccc(C(=N)N)cc2)C(=O)O)c1 (stereo not given) [2-[(4-carbamimidoylphenyl)amino]-2-(3,5-diethoxyphenyl)acetic acid]",,< 4.46,,

# Continued, values first:
pKi (Coagulation factor X),pKi (Prothrombin),pKi (Serine protease 1),pKi (Coagulation factor VII),Compound
5.72,5.35,5.49,7.09,CCOc1cc(O[C@@H]2CCOC2)c(F)c([C@@H](Nc2ccc(C(=N)N)cc2)C(=O)O)c1 [(2R)-2-[(4-carbamimidoylphenyl)amino]-2-{5-ethoxy-2-fluoro-3-[(3R)-oxolan-3-yloxy]phenyl}acetic acid]
5.92,5.15,5.51,7.06,CCOc1cc(O[C@@H]2CCOC2)c(F)c([C@@H](Nc2ccc(C(=N)N)cc2)C(=O)O)c1 [2-[(4-carbamimidoylphenyl)amino]-2-[5-ethoxy-2-fluoro-3-(oxolan-3-yloxy)phenyl]acetic acid]
6.82,5.37,6.62,8.00,"COc1ccc(-c2ccc(C(=O)N[C@H](CO)C(C)(C)C)cc2C(=O)O)c(C(=O)Nc2ccc(C(=N)N)cc2)n1 [2-{2-[(4-carbamimidoylphenyl)carbamoyl]-6-methoxypyridin-3-yl}-5-{[(2S)-1-hydroxy-3,3-dimethylbutan-2-yl]carbamoyl}benzoic acid]"
